In patent US20260272907A1, “Therapeutic Tyrosine Kinase Inhibitors for Multiple Sclerosis” (Principia Biopharma Inc., priority 2022, published 2026):

What was measured:
[1] = tested on: patients with relapsing multiple sclerosis; assay: Phase 2b dose-finding study: clinical laboratory tests, ECG, vital signs (PCSAs, ALT levels); type: in vivo, human
Method: Temperature, pulse rate, respiratory rate, and blood pressure are assessed. The same method for temperature measurement should be used throughout the study. Blood pressure and pulse measurements are assessed in sitting or supine position with a completely automated device. Same position measurements should be used throughout the study for the same participant. Manual techniques are used only if an automated device is not available. Caffeinated drinks to be avoided before blood pressure measurements. Blood pressure and pulse measurements should be preceded by at least 5 minutes of rest for the participant in a quiet setting without distractions (e.g., television, cell phones). Vital signs (to be taken before blood collection for laboratory tests) consist of 1 pulse, 3 blood pressure measurements (3 consecutive blood pressure readings are recorded at intervals of at least 1 minute), and respiratory rate. The average of the 3 blood pressure readings is recorded.
Single twelve-lead ECGs are obtained as outlined in the SOA (Table 1) using an ECG machine that automatically calculates the heart rate and measures PR, QRS, QT, and QTc intervals. At least one longer rhythm monitoring recording needs to be part of each ECG testing. The ECG is reviewed by a cardiologist for confirmation of abnormality and clinical evaluation. Refer to Example 1.4E for QTc withdrawal criteria and any additional QTc readings that may be necessary.
See Example 1.16 for the list of clinical laboratory tests to be performed and to the SoA (Table 1) for the timing and frequency. The Investigator will review the laboratory report, document this review, and record any clinically relevant changes occurring during the study in the AE section of the eCRF. Clinically significant abnormal laboratory findings are those that are not associated with the underlying disease, unless judged by the Investigator to be more severe than expected for the participant's condition. […] All protocol-required laboratory assessments, as defined in Example 1.16, are conducted in accordance with the laboratory manual and the SoA (Table 1). If laboratory values from non-protocol specified laboratory assessments performed at the institution's local laboratory require a change in participant management or are considered clinically significant by the Investigator (e.g., SAE or AE or dose modification), then the results are recorded in the eCRF.
The following definitions are applied to laboratory parameters, ECG, and vital sign results: • Potentially clinically significant abnormality (PCSA) values are defined as abnormal values considered medically important by the Sponsor according to predefined criteria/thresholds based on literature review and are defined by the Sponsor for clinical laboratory tests and vital signs. • Potentially clinically significant abnormality criteria determine which participants had at least 1 PCSA during the on-treatment period, taking into account all evaluations performed during the on-treatment period including unscheduled or repeated evaluations. The number of all such participants is the numerator for the on-treatment PCSA percentage
Additional tests are performed at any time during the study as determined necessary by the Investigator or required by local regulations.

[2] = tested on: CD19+ B-cell; assay: Phase 2b trial: plasma CD19+ B-cell count in the placebo run-out cohort; type: in vivo, human; settings: Cohort 1
Method: OUTCOMES: The outcomes evaluated in this example include measuring the incidence of relapse during 4-week placebo run-in and run-out, the number of new Gd-enhancing T1 lesions detected with magnetic resonance imaging (MRI) at Weeks 4, 8 and 16, the number of new or enlarging T2 lesions measured at Weeks 4, 8 and 16, and the plasma CD19+B-cell count measured in the placebo run-out cohort at baseline, 1 hour after the first dose, then at Week 12 and Week 16 (FIG. 3).

[3] = tested on: patients with relapsing multiple sclerosis; assay: Long-term safety extension: T2 lesion volume change from baseline (MRI); type: in vivo, human; settings: for Volume of new or enlarging T2 lesions, Mean (SD): in cm³
Method: In the current open-label extension Part B, all patients receive 60 mg/day. MRI outcomes include numbers of new Gd-enhancing and new/enlarging T2 lesions, T2 lesion volume change from baseline, slowly evolving lesions (SEL), and paramagnetic rim lesions (PRL).
The Week 0 value is from the last MRI obtained in the dose-finding study if performed within 6 weeks prior to Day 1 of the long-term safety study For some patients the Week 0 value began after a gap period ranging from 0-21 weeks. For patients where the gap period was 0 weeks, the Week 0 value began immediately after the completion of Week 16 of the dose-finding study. For patients where the gap period was greater than 6 weeks a new MRI was obtained prior to Day 1 of the long-term safety study.
If from Week 16 of the dose-finding study (Cohort 2), it is also included in Week 12. If from Week 16 of the dose-finding study (Cohort 1), it is after 4 weeks placebo run out.

[4] = tested on: patients with RMS; assay: Ongoing tolebrutinib Phase 3 trials: drug-induced liver injury; type: in vivo, human; settings: ongoing Phase 3 trials
Excerpt: Drug-induced liver injury has been identified in the ongoing tolebrutinib Phase 3 trials. The reported events occurred between months 2 to 3 after the start of tolebrutinib administration, and the elevation of liver enzymes appears reversible after tolebrutinib discontinuation. Thus, there is a need to mitigate the risk of hepatic injury and provide safe treatment for patients with RMS.

[5] = tested on: CD19+ B-cell; assay: Phase 1: absolute CD19+ B-cell counts
[6] = tested on: patients with relapsing multiple sclerosis; assay: Phase 2b dose-finding study: number of new Gd-enhancing T1-hyperintense lesions by brain MRI; settings: for New Gd-enhancing T1-hyperintense lesion count, observed mean (SD): 12 weeks of treatment, Cohorts 1 and 2 pooled; for Patients with no new Gd-enhancing T1 lesions / Gd-enhancing T1 lesion count, mean (SD): Cohort 1 (all doses); for Gd+ lesion count, mean (SD): Cohort 1, 60 mg/day
Method: Cranial (brain) MRI with and without Gd contrast is performed. Basic MRIs are performed for all participants at all study sites and consist of T2- and T1-weighted sequences without and with Gd contrast.
New T1 Gd-enhancing hyperintense and new and enlarging T2 lesions are evaluated at each visit as per the SoA (Table 1), comparing lesion count to that from the previous MRI scan. Unless specified otherwise, the baseline brain MRI is used as the reference to assess all MRI-derived endpoints. The baseline MRI is the last MRI performed before the randomization visit. Standardized endpoint evaluation is assured by central review of brain MRI scans. Blinded central review is performed for all MRI-derived endpoints. Magnetic resonance imaging reviewers are blinded to treatment assignments and to other participant data.
The first step of this procedure tests for an efficacy signal (compared to the null hypothesis of a flat, no dose-response curve) in a procedure that controls the type 1 error. […] The second step is the Dose estimation of the dose-response curve, provided that an efficacy signal is established in the first step.
The 4-week post-randomization placebo data from Cohort 2 (i.e., Week 4 data from Cohort 2) is utilized as the placebo data at Week 12 in analysis, under the assumption of a constant rate of Gd-enhancing T1-hyperintense lesion formation if participants would be receiving placebo over 12 weeks. Participants in Cohort 2 contribute to the placebo data (at Week 4) as well as the data for 4 BTK inhibitor doses (at Week 16). […] If step 1 yields significant results, the best fitting model from the 6 predefined candidate models is chosen using the generalized Akaike information criterion (AIC).
The first step of this procedure tested for an efficacy signal (compared to the null hypothesis of a flat, no dose-response curve) in a procedure that controls the type 1 error.
The MRI assessments were excluded from the analyses if the participant was receiving systemic corticosteroids within the 30 days prior to the MRI assessment date. The 4-week post-randomization placebo data from Cohort 2 (i.e., Week 4 data from Cohort 2) was utilized as the placebo data at Week 12 in analysis under the assumption of a constant rate of Gd-enhancing T1-hyperintense lesion formation if participants were to receive placebo over 12 weeks. Participants in Cohort 2 contributed to the placebo data (at Week 4) as well as the data for 4 BTK inhibitor doses (at Week 16). The 4-week placebo run-out data from Cohort 1 was not included in the analysis. […] Test statistics and adjusted p-values were provided for all 6 candidate models.

[7] = 5 mg daily, after 12 weeks of treatment
[8] = 15 mg daily, after 12 weeks of treatment
[9] = 30 mg daily, after 12 weeks of treatment
[10] = 60 mg daily, after 12 weeks of treatment
[11] = after 4 weeks of placebo run-out

C=CC(=O)N1CCC[C@@H](n2c(=O)n(-c3ccc(Oc4ccccc4)cc3)c3c(N)nccc32)C1 [the BTK inhibitor, (R)-1-(1-acryloylpiperidin-3-yl)-4-amino-3-(4-phenoxyphenyl)-1H-imidazo[4,5-c]pyridin-2(3H)-one]
ALT level of the participant with AESI ([1]; 30 mg group, Week 8 visit): 105 U/L
ALT level of the participant with AESI ([1]; 30 mg group, within 4 days after the Week 8 visit, back to normal level): 32 U/L
ALT level of the participant with AESI ([1]; 60 mg group, Week 4 visit, ULN 34 U/L): 107 U/L
ALT level of the participant with AESI ([1]; 60 mg group, Week 12, back to normal level): 28 U/L
PCSAs related to vital signs, labs and ECGs: relation to dose ([1]; reported in multiple treatment groups): no dose relationship
Number of B cells in the peripheral circulation after placebo run-out ([2]; after the 4-week placebo run-out period): returned towards baseline level
Number of B cells in the peripheral circulation after the first dose ([2]; within 1 hour after the first dose): increased
Volume of new or enlarging T2 lesions, Median ([3]; 5/60 mg, Week 0): 0.09 cm³
Volume of new or enlarging T2 lesions, Mean (SD) ([3]; 5/60 mg, Week 0): 1.28 (2.57)
Volume of new or enlarging T2 lesions, Median ([3]; 5/60 mg, Week 12): 0.2 cm³
Volume of new or enlarging T2 lesions, Mean (SD) ([3]; 5/60 mg, Week 12): 1.05 (1.70)
Volume of new or enlarging T2 lesions, Median ([3]; 15/60 mg, Week 0): 0.08 cm³
Volume of new or enlarging T2 lesions, Mean (SD) ([3]; 15/60 mg, Week 0): 0.72 (1.86)
Volume of new or enlarging T2 lesions, Median ([3]; 15/60 mg, Week 12): 0.2 cm³
Volume of new or enlarging T2 lesions, Mean (SD) ([3]; 15/60 mg, Week 12): 1.09 (1.61)
Volume of new or enlarging T2 lesions, Median ([3]; 30/60 mg, Week 0): 0 cm³
Volume of new or enlarging T2 lesions, Mean (SD) ([3]; 30/60 mg, Week 0): 0.48 (1.59)
Volume of new or enlarging T2 lesions, Median ([3]; 30/60 mg, Week 12): 0.04 cm³
Volume of new or enlarging T2 lesions, Mean (SD) ([3]; 30/60 mg, Week 12): 0.69 (1.30)
T2 lesion volume change, W96 vs baseline, mean±SD ([3]; 60/60 mg arm): 0.38±2.11 cm3
Volume of new or enlarging T2 lesions, Median ([3]; 60/60 mg, Week 0): 0 cm³
Volume of new or enlarging T2 lesions, Mean (SD) ([3]; 60/60 mg, Week 0): 0.18 (0.38)
Volume of new or enlarging T2 lesions, Median ([3]; 60/60 mg, Week 12): 0.06 cm³
Volume of new or enlarging T2 lesions, Mean (SD) ([3]; 60/60 mg, Week 12): 0.26 (0.48)
Volume of new or enlarging T2 lesions, Median ([3]; All (N = 125), Week 0): 0 cm³
Volume of new or enlarging T2 lesions, Mean (SD) ([3]; All (N = 125), Week 0): 0.67 (1.81)
Volume of new or enlarging T2 lesions, Median ([3]; All (N = 125), Week 12): 0.12 cm³
Volume of new or enlarging T2 lesions, Mean (SD) ([3]; All (N = 125), Week 12): 0.80 (1.39)
Course of the elevation of liver enzymes after discontinuation [4]: reversible
Drug-induced liver injury [4]: identified
Dose at which the dose-response for the increase in circulating B-cells is maximal [5]: approximately 30 mg once daily
Dose-dependent increase of absolute CD19+ B-cell counts relative to baseline ([5]; observed maximally at Day 4): up to 80%
New Gd-enhancing T1-hyperintense lesion count, Mean [6, 7]: 1.39
New Gd-enhancing T1-hyperintense lesion count, Median [6, 7]: 0.00
New Gd-enhancing T1-hyperintense lesion count, observed mean (SD) ([6]; 5 mg once daily): 1.39 (3.20)
New Gd-enhancing T1-hyperintense lesion count, Mean [6, 8]: 0.77
New Gd-enhancing T1-hyperintense lesion count, Median [6, 8]: 0.00
New Gd-enhancing T1-hyperintense lesion count, observed mean (SD) ([6]; 15 mg once daily): 0.77 (1.48)
New Gd-enhancing T1-hyperintense lesion count, Mean [6, 9]: 0.76
New Gd-enhancing T1-hyperintense lesion count, Median [6, 9]: 0.00
New Gd-enhancing T1-hyperintense lesion count, observed mean (SD) ([6]; 30 mg once daily): 0.76 (3.31)
New Gd-enhancing T1-hyperintense lesion count, Mean [6, 10]: 0.13
New Gd-enhancing T1-hyperintense lesion count, Median [6, 10]: 0.00
Patients with >=3 new Gd-enhancing T1-hyperintense lesions [6, 10]: 0 n
New Gd-enhancing T1-hyperintense lesion count, observed mean (SD) ([6]; 60 mg once daily): 0.13 (0.43)
Relative reduction in new Gd-enhancing T1-hyperintense lesions compared with placebo ([6]; 60 mg, 12 weeks, negative binomial regression model adjusted for baseline lesion activity, 95% CI [28.02%, 96.88%], nominal p=0.0178): 85.02%
Participants with no new Gd-enhancing T1-hyperintense lesions ([6]; 60 mg, end of 12 weeks of treatment, 28 of 31 with evaluable MRI): 90.30%
Dose-response for reduction in number of new active Gd-enhancing T1-hyperintense brain lesions ([6]; 5-60 mg once daily, after 12 weeks of treatment, MCP-Mod): dose-response relationship
Patients with no new Gd-enhancing T1 lesions ([6]; 4 weeks after discontinuing tolebrutinib (placebo run-out)): 85.2%
Gd-enhancing T1 lesion count, mean (SD) [6, 11]: 0.44 (1.70)
Gd-enhancing T1 lesion count, mean (SD) ([6]; after 12 weeks of tolebrutinib): 0.37 (0.99)
Patients with no new Gd-enhancing T1 lesions ([6]; after 12 weeks of tolebrutinib treatment): 83.3%
Gd+ lesion count, mean (SD) [6, 11]: 0.31 (0.70)
Gd+ lesion count, mean (SD) ([6]; after 12 weeks of tolebrutinib): 0.20 (0.56)
